How the values were obtained:
Assay type in all cases: functional
Conditions in all cases: route oral
[1] = system: Mus musculus; assay: Antimaximal electroshock seizure (MES) activity in mice after peroral administration of 100 mg/kg of compound; 0/5
[2] = system: Mus musculus; assay: Antiexploratory activity (EXPL) of mice determined by an antimex activity meter, 100 mg/kg of dose was administered perorally; No inhibition
[3] = system: Mus musculus; assay: Antitremorine activity(TRM) of mice after peroral administration of 100 mg/kg of compound; No inhibition
[4] = system: Mus musculus; assay: Antireserpine activity (RES) of mice after peroral administration of 100 mg/kg of compound; No inhibition

| SMILES | Activity [1] | inhibition in vivo at 100 mg/kg [2] [%] | inhibition in vivo at 100 mg/kg [3] [%] | inhibition in vivo at 100 mg/kg [4] [%] |
| --- | --- | --- | --- | --- |
| C1=C(c2ccccc2)C(N2CCN(Cc3ccccc3)CC2)=Nc2ccccc2C1 | 0 | < 30 | < 30 | – |
| C1=C(c2ccccc2)C(N2CCNCC2)=Nc2ccccc2C1.O=C(O)/C=C/C(=O)O | 0 | < 30 | < 30 | < 30 |
| O=C(O)/C=C/C(=O)O.OCCN1CCN(C2=Nc3ccccc3CC=C2c2cccc(C(F)(F)F)c2)CC1 | 0 | < 30 | < 30 | – |
| CN1CCN(C2=Nc3ccccc3CC=C2c2cccc(C(F)(F)F)c2)CC1.O=C(O)/C=C/C(=O)O | 0 | < 30 | < 30 | – |
| O=C(CN1CCN(C2=Nc3ccc(Br)cc3CC=C2c2ccccc2)CC1)c1ccccc1 | 0 | < 30 | < 30 | < 30 |
| C1=C(c2ccccc2)C(N2CCN(c3ccccc3)CC2)=Nc2ccccc2C1 | 0 | < 30 | < 30 | < 30 |
| Clc1ccccc1C1=CCc2cc(Br)ccc2N=C1N1CCNCC1.O=C(O)/C=C/C(=O)O | 0 | < 30 | < 30 | < 30 |
| O=C(CCN1CCN(C2=Nc3ccc(Br)cc3CC=C2c2ccccc2)CC1)c1ccccc1 | 0 | < 30 | < 30 | < 30 |
| Clc1ccc(C2=CCc3ccccc3N=C2N2CCNCC2)cc1.O=C(O)/C=C/C(=O)O | 0 | < 30 | < 30 | < 30 |
| Brc1ccc2c(c1)CC=C(c1ccccc1)C(N1CCN(c3ccccc3)CC1)=N2 | 0 | < 30 | < 30 | < 30 |
| NC(=O)N1CCN(C2=Nc3ccc(Cl)cc3CC=C2c2ccccc2)CC1 | 0 | < 30 | < 30 | < 30 |
| Clc1ccccc1C1=CCc2ccccc2N=C1N1CCNCC1.O=C(O)/C=C/C(=O)O | 0 | < 30 | < 30 | < 30 |
| C1=C(c2ccccc2)C(N2CCOCC2)=Nc2ccccc2C1.Cl | 0 | < 30 | < 30 | < 30 |
| CN1CCN(C2=Nc3ccc(Br)cc3CC=C2c2ccc(Cl)cc2)CC1.Cl.Cl | 0 | < 30 | < 30 | < 30 |
| CCCc1ccc2c(c1)CC=C(c1ccccc1)C(N1CCN(C)CC1)=N2.Cl.Cl | 0 | < 30 | – | < 30 |
| Cc1ccc(C2=CCc3ccccc3N=C2N2CCN(CCO)CC2)cc1.Cl.Cl | 0 | < 30 | < 30 | < 30 |
| Cl.Cl.OCCN1CCN(C2=Nc3ccc(Br)cc3CC=C2c2ccc(Cl)cc2)CC1 | 0 | < 30 | < 30 | < 30 |
| Cl.Cl.OCCN1CCN(C2=Nc3cc(Cl)ccc3CC=C2c2ccc(Cl)cc2)CC1 | 0 | < 30 | < 30 | < 30 |
| CCN1CCN(C2=Nc3ccccc3CC=C2c2ccc(C)cc2)CC1.Cl.Cl | 0 | < 30 | < 30 | < 30 |
| CC(C)c1ccc2c(c1)CC=C(c1ccccc1)C(N1CCN(CCO)CC1)=N2.Cl.Cl | 0 | < 30 | < 30 | < 30 |
